Key:
human FFA2-eYFP = biological target: T1, human FFA2-eYFP (Homo sapiens, UniProt O15552); assay: [35S]GTPγS incorporation assay, membranes of Flp-In T-Rex 293 cells; format: biochemical; settings: for GTPγS pIC50: hFFA2, propionate at EC80, mean ± SEM, three or more experiments; for LLEGTPγS: pIC50, GTPγS – ClogP
T1 construct: expressed in transfected cells; host or cells: membranes of Flp-In T-Rex 293 cells induced to express the construct
T1 sequence (O15552 1-330): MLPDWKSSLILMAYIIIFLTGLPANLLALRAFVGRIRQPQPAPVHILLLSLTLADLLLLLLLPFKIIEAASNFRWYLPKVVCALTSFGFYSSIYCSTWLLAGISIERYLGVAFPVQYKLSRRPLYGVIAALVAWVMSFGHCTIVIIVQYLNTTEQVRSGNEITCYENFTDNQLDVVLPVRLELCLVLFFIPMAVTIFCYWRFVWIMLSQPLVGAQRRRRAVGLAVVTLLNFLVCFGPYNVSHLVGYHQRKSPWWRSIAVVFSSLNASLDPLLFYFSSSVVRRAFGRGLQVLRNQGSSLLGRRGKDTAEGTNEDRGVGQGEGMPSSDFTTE
Procedure: (§1) The activity of the compounds on FFA2 was evaluated in two different functional antagonist assays, both using propionate at EC80 as the agonist. The GTPγS assay reflects receptor activation by directly assessing G protein recruitment, whereas the cAMP assay, performed in whole cells, reflects a physiologically relevant downstream second messenger.
Functional activity of the compounds were tested in a [^35S]GTPγS incorporation assay using membranes of Flp-In T-Rex 293 cells induced to express human FFA2-eYFP. […] The reaction was initiated by addition of [^35S]GTPγS (100 nCi per reaction) containing 1 μM GDP and incubated at 30 °C for 60 min. The reaction was terminated by rapid vacuum filtration through GF/C glass fiber filter-bottom 96-well microplates (PerkinElmer Life Sciences, Beaconsfield, UK) using a UniFilter FilterMate Harvester (PerkinElmer). Unbound radioligands were removed from filters by three washes with ice-cold PBS. MicroScint-20 (PerkinElmer) was added to dried filters, and [^35S]GTPγS binding was quantified by liquid scintillation spectroscopy.

hFFA2 = biological target: T2, hFFA2 (Homo sapiens, UniProt O15552); assay: cAMP assay, antagonist mode, Flp-In T-Rex 293 cells expressing hFFA2-eYFP; format: cell-based; settings: for cAMP pIC50: hFFA2, antagonist mode, propionate at EC80, mean ± SEM, three or more experiments; for LLEcAMP: pIC50, cAMP – ClogP; for IC50 / hFFA2 cAMP (pIC50): supplementary CSV; for IC50: read-out: hFFA2 cAMP (pIC50) (converted)
T2 construct: expressed in transfected cells; host or cells: Flp-In T-Rex 293 cells, doxycycline-induced
T2 sequence (O15552 1-330): T1 sequence (O15552 1-330)
Procedure: as §1
The hFFA2-eYFP and hFFA3-eYFP Flp-In T-Rex 293 cell lines were maintained in Dulbecco’s modified Eagle mMedium (DMEM, ThermoFisher #11965092) supplemented with 10% (v/v) fetal bovine serum, 100 U/mL penicillin, 100 μg/mL streptomycin, 5 μg/mL blasticidin S, and 200 μg/mL hygromycin B and incubated at 37 °C and 5% CO2 in a humidified incubator. Cells were passaged at 70–80% confluency.
To determine the compound’s ability to activate or inhibit the Gi-coupled FFA2 or FFA3, intracellular cAMP concentrations were determined using Flp-In T-Rex293 cells induced to express hFFA2-eYFP or hFFA3-eYFP. Experiments were carried out using a homogeneous time-resolved FRET-based detection kit (CisBio, PerkinElmer #62AM9PEC) according to the manufacturer’s protocol. The day before the assay, 10,000 cells/well were plated in DMEM supplemented with penicillin/streptomycin (100 units/mL and […], respectively), 5 μg/mL blasticidin S, and 200 μg/mL hygromycin B in 96-well cell culture microplates (Greiner Bio-One) and induced to express hFFA2-eYFP or hFFA3-YFP with 100 ng/mL doxycycline.
In antagonist mode, the cells were pre-incubated for 20 min with antagonist test compounds in HBSS together with 50 μM IBMX at rt. Then, the cells were further incubated for 25 min at rt in HBSS with the agonist compound, sodium propionate at EC80 (51.4 μM for FFA2, 13.2 μM for FFA3), and 3 μM forskolin. Reactions were stopped, and the output was measured with an Envision plate reader using a time-resolved fluorescence protocol, measuring the light emission at 620 and 665 nm. All analyses were performed in triplicate and analyzed using GraphPad Prism (version 9).

O=C(Cc1ccccc1)N[C@@H](Cc1ccc(C(F)(F)F)cc1)Cc1nnn[nH]1 [Compound 16a, (S)-N-(1-(1H-Tetrazol-5-yl)-3-(4-(trifluoromethyl)phenyl)propan-2-yl)-2-phenylacetamide]
GTPγS pIC50 (human FFA2-eYFP): 8.36 ± 0.09 | LLEGTPγS (human FFA2-eYFP): 5.80 | cAMP pIC50 (hFFA2): 7.89 ± 0.20 | LLEcAMP (hFFA2): 5.33 | IC50 (hFFA2): 11.7 nM

O=C(N[C@@H](Cc1ccc(C(F)(F)F)cc1)Cc1nnn[nH]1)C1Cc2ccccc21 (stereo partly drawn) [Compound 16b, N-((S)-1-(1H-Tetrazol-5-yl)-3-(4-(trifluoromethyl)phenyl)propan-2-yl)bicyclo[4.2.0]octa-1(6),2,4-triene-7-carboxamide]
GTPγS pIC50 (human FFA2-eYFP): 8.06 ± 0.06 | LLEGTPγS (human FFA2-eYFP): 5.49 | cAMP pIC50 (hFFA2): 7.96 ± 0.03 | LLEcAMP (hFFA2): 5.39 | hFFA2 cAMP (pIC50) (hFFA2): 7.95 ± 0.12

O=C(Cc1cccc(F)c1)N[C@@H](Cc1ccc(C(F)(F)F)cc1)Cc1nnn[nH]1 [Compound 16c, (S)-N-(1-(1H-Tetrazol-5-yl)-3-(4-(trifluoromethyl)phenyl)propan-2-yl)-2-(3-fluorophenyl)acetamide]
GTPγS pIC50 (human FFA2-eYFP): 8.13 ± 0.04 | LLEGTPγS (human FFA2-eYFP): 5.42 | cAMP pIC50 (hFFA2): 8.26 ± 0.16 | LLEcAMP (hFFA2): 5.55

O=C(Cc1cccc(F)c1)N[C@@H](Cc1ccccc1)Cc1nnn[nH]1 [Compound 16d, (S)-2-(3-Fluorophenyl)-N-(1-phenyl-3-(1H-tetrazol-5-yl)propan-2-yl)acetamide]
GTPγS pIC50 (human FFA2-eYFP): 7.47 ± 0.04 | LLEGTPγS (human FFA2-eYFP): 5.65 | cAMP pIC50 (hFFA2): 6.91 ± 0.07 | LLEcAMP (hFFA2): 5.09 | IC50 (hFFA2): 102 nM

O=C(Cc1ccc(Cl)cc1)N[C@@H](Cc1ccc(C(F)(F)F)cc1)Cc1nnn[nH]1 [Compound 16f, (S)-N-(1-(1H-Tetrazol-5-yl)-3-(4-(trifluoromethyl)phenyl)propan-2-yl)-2-(4-chlorophenyl)acetamide]
GTPγS pIC50 (human FFA2-eYFP): 8.07 ± 0.04 | LLEGTPγS (human FFA2-eYFP): 4.79 | cAMP pIC50 (hFFA2): 8.08 ± 0.11 | LLEcAMP (hFFA2): 4.80 | IC50 (hFFA2): 9.33 nM

O=C(Cc1cccc(C(F)(F)F)c1)N[C@@H](Cc1ccc(C(F)(F)F)cc1)Cc1nnn[nH]1 [Compound 16i, (S)-N-(1-(1H-Tetrazol-5-yl)-3-(4-(trifluoromethyl)phenyl)propan-2-yl)-2-(3-(trifluoromethyl)phenyl)acetamide]
GTPγS pIC50 (human FFA2-eYFP): 8.05 ± 0.21 | LLEGTPγS (human FFA2-eYFP): 4.60 | cAMP pIC50 (hFFA2): 7.68 ± 0.11 | LLEcAMP (hFFA2): 4.23 | IC50 (hFFA2): 15.8 nM

CCOc1cccc(CC(=O)N[C@@H](Cc2ccc(C(F)(F)F)cc2)Cc2nnn[nH]2)c1 [Compound 16m, (S)-N-(1-(1H-Tetrazol-5-yl)-3-(4-(trifluoromethyl)phenyl)propan-2-yl)-2-(3-ethoxyphenyl)acetamide]
GTPγS pIC50 (human FFA2-eYFP): 8.05 ± 0.19 | LLEGTPγS (human FFA2-eYFP): 5.04 | cAMP pIC50 (hFFA2): 7.77 ± 0.12 | LLEcAMP (hFFA2): 4.76 | IC50 (hFFA2): 15.8 nM

O=C(Cc1cccc(OC(F)(F)F)c1)N[C@@H](Cc1ccc(C(F)(F)F)cc1)Cc1nnn[nH]1 [Compound 16n, (S)-N-(1-(1H-Tetrazol-5-yl)-3-(4-(trifluoromethyl)phenyl)propan-2-yl)-2-(3-(trifluoromethoxy)phenyl)acetamide]
GTPγS pIC50 (human FFA2-eYFP): 7.50 ± 0.23 | LLEGTPγS (human FFA2-eYFP): 3.91 | cAMP pIC50 (hFFA2): 7.44 ± 0.18 | LLEcAMP (hFFA2): 3.85 | IC50 (hFFA2): 46.8 nM

O=C(CC1CCCC1)N[C@@H](Cc1ccc(C(F)(F)F)cc1)Cc1nnn[nH]1 [Compound 16o, (S)-N-(1-(1H-Tetrazol-5-yl)-3-(4-(trifluoromethyl)phenyl)propan-2-yl)-2-cyclopentylacetamide]
GTPγS pIC50 (human FFA2-eYFP): 5.78 ± 0.14 | LLEGTPγS (human FFA2-eYFP): 2.89 | cAMP pIC50 (hFFA2): 5.24 ± 0.17 | LLEcAMP (hFFA2): 2.35 | hFFA2 cAMP (pIC50) (hFFA2): 5.22 ± 0.18

CCCCCC(=O)N[C@@H](Cc1ccc(C(F)(F)F)cc1)Cc1nnn[nH]1 [Compound 16p, (S)-N-(1-(1H-Tetrazol-5-yl)-3-(4-(trifluoromethyl)phenyl)propan-2-yl)hexanamide]
GTPγS pIC50 (human FFA2-eYFP): 6.37 ± 0.44 | LLEGTPγS (human FFA2-eYFP): 3.46 | cAMP pIC50 (hFFA2): 6.36 ± 0.12 | LLEcAMP (hFFA2): 3.45 | IC50 (hFFA2): 355 nM

O=C(CCc1ccccc1)N[C@@H](Cc1ccc(C(F)(F)F)cc1)Cc1nnn[nH]1 [Compound 16q, (S)-N-(1-(1H-Tetrazol-5-yl)-3-(4-(trifluoromethyl)phenyl)propan-2-yl)-3-phenylpropanamide]
GTPγS pIC50 (human FFA2-eYFP): 7.19 ± 0.04 | LLEGTPγS (human FFA2-eYFP): 4.30 | cAMP pIC50 (hFFA2): 6.78 ± 0.14 | LLEcAMP (hFFA2): 3.89 | IC50 (hFFA2): 186 nM

O=C(Cc1ccccn1)N[C@@H](Cc1ccc(C(F)(F)F)cc1)Cc1nnn[nH]1 [Compound 16r, (S)-2-(2-((1-(1H-Tetrazol-5-yl)-3-(4-(trifluoromethyl)phenyl)propan-2-yl)amino)-2-oxoethyl)pyridin-1-ium 2,2,2-trifluoroacetate]
GTPγS pIC50 (human FFA2-eYFP): 6.71 ± 0.17 | LLEGTPγS (human FFA2-eYFP): 5.64 | cAMP pIC50 (hFFA2): 5.93 ± 0.15 | LLEcAMP (hFFA2): 4.86 | IC50 (hFFA2): 1450 nM

O=C(Cc1cccnc1)N[C@@H](Cc1ccc(C(F)(F)F)cc1)Cc1nnn[nH]1 [Compound 16s, (S)-3-(2-((1-(1H-Tetrazol-5-yl)-3-(4-(trifluoromethyl)phenyl)propan-2-yl)amino)-2-oxoethyl)pyridin-1-ium 2,2,2-trifluoroacetate]
decrease in potency compared to 16a (human FFA2-eYFP; GTPγS assay): 7 fold | GTPγS pIC50 (human FFA2-eYFP): 7.29 ± 0.07 | LLEGTPγS (human FFA2-eYFP): 6.22 | decrease in potency compared to 16a (hFFA2; cAMP assay): 7 fold | cAMP pIC50 (hFFA2): 6.89 ± 0.10 | LLEcAMP (hFFA2): 5.82 | IC50 (hFFA2): 91.2 nM

O=C(Cc1ccncc1)N[C@@H](Cc1ccc(C(F)(F)F)cc1)Cc1nnn[nH]1 [Compound 16t, (S)-N-(1-(1H-Tetrazol-5-yl)-3-(4-(trifluoromethyl)phenyl)propan-2-yl)-2-(pyridin-4-yl)acetamide]
GTPγS pIC50 (human FFA2-eYFP): 6.47 ± 0.15 | LLEGTPγS (human FFA2-eYFP): 5.40 | cAMP pIC50 (hFFA2): 5.74 ± 0.13 | LLEcAMP (hFFA2): 4.67 | IC50 (hFFA2): 2950 nM

O=C(Cc1ccc(Cl)nc1)N[C@@H](Cc1ccc(C(F)(F)F)cc1)Cc1nnn[nH]1 [Compound 16v, (S)-5-(2-((1-(1H-Tetrazol-5-yl)-3-(4-(trifluoromethyl)phenyl)propan-2-yl)amino)-2-oxoethyl)-2-chloropyridin-1-ium 2,2,2-trifluoroacetate]
GTPγS pIC50 (human FFA2-eYFP): 7.20 ± 0.14 | LLEGTPγS (human FFA2-eYFP): 5.42 | cAMP pIC50 (hFFA2): 6.98 ± 0.13 | LLEcAMP (hFFA2): 5.20 | IC50 (hFFA2): 95.5 nM

O=C(Cc1cccc(Cl)c1)N[C@H](CCc1nnn[nH]1)Cc1ccc(C(F)(F)F)cc1 [Compound 21, (R)-N-(4-(1H-Tetrazol-5-yl)-1-(4-(trifluoromethyl)phenyl)butan-2-yl)-2-(3-chlorophenyl)-acetamide]
GTPγS pIC50 (human FFA2-eYFP): 7.72 ± 0.12 | LLEGTPγS (human FFA2-eYFP): 3.92 | potency decrease on elongated tetrazole linker (human FFA2-eYFP; vs 16e, GTPγS assay): 5–6 fold | cAMP pIC50 (hFFA2): 7.55 ± 0.14 | LLEcAMP (hFFA2): 3.75 | IC50 (hFFA2): 30.9 nM | potency decrease on elongated tetrazole linker (hFFA2; vs 16e, cAMP assay): 5–6 fold

Source: paper PMC10547238, “Discovery of Potent Tetrazole Free Fatty Acid Receptor 2 Antagonists” (Journal of Medicinal Chemistry, 2023)
